Laboratory results as given in patent US20020028938A1, “Prostaglandin endoperoxide H synthase biosynthesis inhibitors” (priority 1997, published 2002).

Row | SMILES | melting point [°C]
1 | CS(=O)(=O)c1ccc(-c2cnn(CC(F)(F)F)c(=O)c2NCC2CC2)cc1 [Example 302, 2-(2,2,2-Trifluoroethyl)-4-(cyclopropylmethylamino)-5-[4-(methylsulfonyl)phenyl]-3(2H)-pyridazinone] | 145 to 146
2 | CS(=O)(=O)c1ccc(-c2cnn(CC(F)(F)F)c(=O)c2NC2CCc3ccccc32)cc1 (centres unmarked) [Example 303, 2-(2,2,2-Trifluoroethyl)-4-(2,3-dihydro-1H-inden-1-ylamino)-5-[4-(methylsulfonyl)phenyl]-3(2H)-pyridazinone] | 155 to 158
3 | CS(=O)(=O)c1ccc(-c2cnn(CC(F)(F)F)c(=O)c2N2CCCCC2)cc1 [Example 304, 2-(2,2,2-Trifluoroethyl)-4-(1-piperidinyl)-5-[4-(methylsulfonyl)phenyl]-3(2H)-pyridazinone] | 160 to 161
4 | CS(=O)(=O)c1ccc(-c2cnn(CC(F)(F)F)c(=O)c2NCCCO)cc1 [Example 305, 2-(2,2,2-Trifluoroethyl)-4-(3-hydroxypropylamino)-5-[4-(methylsulfonyl)phenyl]-3(2H)-pyridazinone] | 152 to 154
5 | C[C@@H](O)CNc1c(-c2ccc(S(C)(=O)=O)cc2)cnn(CC(F)(F)F)c1=O [Example 307, 2-(2,2,2-Trifluoroethyl)-4-(2R-hydroxylpropylamino)-5-[4-(methylsulfonyl)phenyl]3(2H)-pyridazinone] | 140 to 142
6 | CS(=O)(=O)c1ccc(-c2cnn(CC(F)(F)F)c(=O)c2NCCC#N)cc1 [Example 308, 2-(2,2,2-Trifluoroethyl)-4-(2-cyanoethylamino)-5-[4-(methylsulfonyl)phenyl]-3(2H)-pyridazinone] | 172 to 174
7 | COc1cc(Nc2c(-c3ccc(S(C)(=O)=O)cc3)cnn(CC(F)(F)F)c2=O)cc(C(F)(F)F)c1 [Example 310, 2-(2,2,2-Trifluoroethyl)-4-[3-methoxy-5-(trifluoromethyl)anilino]-5-[4-(methylsulfonyl)phenyl]-3(2H)-pyridazinone] | 206 to 208
8 | CS(=O)(=O)c1ccc(-c2cnn(CC(F)(F)F)c(=O)c2Nc2ccccc2)cc1 [Example 311, 2-(2,2,2-Trifluoroethyl)-4-anilino-5-[4-(methylsulfonyl)phenyl]-3(2H)-pyridazinone] | 154 to 156
9 | CS(=O)(=O)c1ccc(-c2cnn(CC(F)(F)F)c(=O)c2Nc2cc(F)cc(F)c2F)cc1 [Example 315, 2-(2,2,2-Trifluoroethyl)-4-(2,3,5-trifluoroanilino)-5-[4-(methylsulfonyl)phenyl]-3(2H)-pyridazinone] | 190 to 194
10 | CS(=O)(=O)c1ccc(-c2cnn(CC(F)(F)F)c(=O)c2Nc2ccc(F)cc2)cc1 [Example 316, 2-(2,2,2-Trifluoroethyl)-4-(4-fluoroanilino)-5-[4-(methylsulfonyl)phenyl]-3(2H)-pyridazinone] | 158 to 160
11 | CS(=O)(=O)c1ccc(-c2cnn(Cc3ccccc3)c(=O)c2-c2ccc3c(c2)COC3=O)cc1 [Example 319, 2-Benzyl-4-(1-oxo-1,3-dihydro-2-benzofuran-5-yl)-5-[4-(methylsulfonyl)phenyl]-3(2H)-pyridazinone] | > 250
12 | COc1c(-c2ccc(S(C)(=O)=O)cc2)cnn(-c2cccc(Cl)c2)c1=O [Example 331, 2-(3-Chlorophenyl)-4-methoxy-5-[4-(methylsulfonyl)phenyl]-3(2H)-pyridazinone] | 112 to 114
13 | CS(=O)(=O)c1ccc(-c2cnn(-c3ccc(F)cc3)c(=O)c2N2CCCC2)cc1 [Example 356, 2-(4-Fluorophenyl)-4-(1-pyrrolidinyl)-5-[4-(methylsulfonyl)phenyl]-3(2H)-pyridazinone] | 192 to 195
14 | Cc1ccc(Sc2c(-c3ccc(S(C)(=O)=O)cc3)cnn(-c3cccc(Cl)c3)c2=O)cc1 [Example 357, 2-(3-Chlorophenyl)-4-(4-methylphenylthio)-5-[4-(methylsulfonyl)phenyl]-3(2H)-pyridazinone] | 178
15 | CS(=O)(=O)c1ccc(-c2cnn(-c3cccc(Cl)c3)c(=O)c2SCc2ccccc2)cc1 [Example 359, 2-(3-Chlorophenyl)-4-(phenylmethylthio)-5-[4-(methylsulfonyl)phenyl]-3(2H)-pyridazinone] | 142 to 145
16 | CS(=O)(=O)c1ccc(-c2cnn(-c3cccc(Cl)c3)c(=O)c2SCc2ccco2)cc1 [Example 360, 2-(3-Chlorophenyl)-4-(2-furylmethylthio)-5-[4-(methylsulfonyl)phenyl]-3(2H)-pyridazinone] | 140 to 149
17 | CS(=O)(=O)c1ccc(-c2cnn(-c3ccc(F)cc3)c(=O)c2Cc2ccc(F)cc2)cc1 [Example 377, 2-(4-Fluorophenyl)-4-(4-fluorobenzyl)-5-[4-(methylsulfonyl)phenyl]-3(2H)-pyridazinone] | 175 to 177
18 | CC(C)COc1c(-c2ccc(S(N)(=O)=O)c(F)c2)cnn(CC(F)(F)F)c1=O [Example 382, 2-(2,2,2-Trifluoroethyl)-4-(2-methylpropoxy)-5-[3-fluoro-4-(aminosulfonyl)phenyl]-3(2H)-pyridazinone] | 163 to 164

Row | SMILES | melting point [°C]
19 | NS(=O)(=O)c1ccc(-c2cnn(Cc3ccccc3)c(=O)c2Cc2ccc(F)cc2)cc1 [Example 383, 2-Benzyl-4-(4-fluorobenzyl)-5-[4-(aminosulfonyl)phenyl]-3(2H)-pyridazinone] | 120 to 123
20 | Cc1cc(-c2c(-c3ccc(S(N)(=O)=O)cc3)cnn(-c3ccc(F)c(Cl)c3)c2=O)ccc1F [Example 389, 2-(3-Chloro-4-fluorophenyl)-4-(4-fluoro-3-methylphenyl)-5-[4-(aminosulfonyl)phenyl]-3(2H)-pyridazinone] | 243 to 245
21 | CS(=O)(=O)c1ccc(-c2cnn(-c3ccc(F)cc3)c(=O)c2OCC2CC2)cc1 [Example 416, 2-(4-Fluorophenyl)-4-cyclopropylmethoxy-5-[4-(methylsulfonyl)phenyl]-3(2H)-pyridazinone] | 166 to 167
22 | CS(=O)(=O)c1ccc(-c2cnn(-c3ccc(F)cc3)c(=O)c2OCCC2CC2)cc1 [Example 417, 2-(4-Fluorophenyl)-4-(2-cyclopropyl-1-ethoxy)-5-[4-(methylsulfonyl)phenyl]-3(2H)-pyridazinone] | 111 to 117
23 | CC(C)CCC(C)Oc1c(-c2ccc(S(C)(=O)=O)cc2)cnn(-c2ccc(F)cc2)c1=O (centres unmarked) [Example 429, 2-(4-Fluorophenyl)-4-(5-methyl-2-hexyloxy)-5-[4-(methylsulfonyl)phenyl]-3(2H)-pyridazinone] | 102 to 103
24 | CCCC(CCOc1c(-c2ccc(S(C)(=O)=O)cc2)cnn(-c2ccc(F)cc2)c1=O)SC (centres unmarked) [Example 433, 2-(4-Fluorophenyl)-4-(3-methylthio-1-hexyloxy)-5-[4-(methylsulfonyl)phenyl]-3(2H)-pyridazinone] | 90 to 92
25 | CC(CCOc1c(-c2ccc(S(C)(=O)=O)cc2)cnn(-c2ccc(F)c(F)c2)c1=O)C(F)(F)F (centres unmarked) [Example 435, 2-(3,4-Difluorophenyl)-4-(3-trifluoromethyl-1-butoxy)-5-[4-(methylsulfonyl)phenyl]-3(2H)-pyridazinone] | 126 to 128
26 | CCOc1c(-c2ccc(S(C)(=O)=O)cc2)cnn(-c2ccc(F)c(F)c2)c1=O [Example 436, 2-(3,4-Difluorophenyl)-4-ethoxy-5-[4-(methylsulfonyl)phenyl]-3(2H)-pyridazinone] | 121 to 123
27 | CS(=O)(=O)c1ccc(-c2cnn(-c3ccc(F)c(F)c3)c(=O)c2OCCC2CCCC2)cc1 [Example 439, 2-(3,4-Difluorophenyl)-4-(2-cyclopentyl-1-ethoxy)-5-[4-(methylsulfonyl)phenyl]-3(2H)-pyridazinone] | 100 to 101
28 | CS(=O)(=O)c1ccc(-c2cnn(CC(O)c3ccccc3)c(=O)c2-c2ccc(F)cc2)cc1 (centres unmarked) [Example 441, 2-(2-Hydroxy-2-phenylethyl)-4-(4-fluorophenyl)-5-[4-(methylsulfonyl)phenyl]-3(2H)-pyridazinone] | 205 to 207
29 | COc1c(-c2ccc(S(C)(=O)=O)cc2)cnn(-c2ccc(F)c(F)c2)c1=O [Example 453, 2-(3,4-Difluorophenyl)-4-methoxy-5-[4-(methylsulfonyl)phenyl]-3(2H)-pyridazinone] | 113 to 115
30 | CS(=O)(=O)c1ccc(-c2cnn(-c3ccc(F)cc3)c(=O)c2-c2cccc(F)c2)cc1 [Example 458, 2-(4-Fluorophenyl)-4-(3-fluorophenyl)-5-[4-(methylsulfonyl)phenyl]-3(2H)-pyridazinone] | 199 to 201
31 | CON=C(C)COc1c(-c2ccc(S(C)(=O)=O)cc2)cnn(-c2ccc(F)c(F)c2)c1=O [Example 461, 2-(3,4-Difluorophenyl)-4-[2-(methoxyimino)-1-propoxy]-5-[4-(methylsulfonyl)phenyl]-3(2H)-pyridazinone] | 143 to 145
32 | CC(=O)CCOc1c(-c2ccc(S(C)(=O)=O)cc2)cnn(-c2ccc(F)cc2)c1=O [Example 468, 2-(4-Fluorophenyl)-4-(3-oxo-1-butoxy)-5-[4-(methylsulfonyl)phenyl]-3(2H)-pyridazinone] | 133 to 136
33 | CC(C)(O)CCOc1c(-c2ccc(S(N)(=O)=O)cc2)cnn(-c2ccc(F)cc2)c1=O [Example 470, 2-(4-Fluorophenyl)-4-(3-hydroxy-3-methyl-1-butoxy)-5-[4-(aminosulfonyl)phenyl]-3(2H)-pyridazinone] | 163 to 164
34 | CC(C)(O)CCOc1c(-c2ccc(S(N)(=O)=O)cc2)cnn(-c2ccc(F)c(F)c2)c1=O [Example 472, 2-(3,4-Difluorophenyl)-4-(3-hydroxy-3-methyl-1-butoxy)-5-[4-(aminosulfonyl)phenyl]-3(2H)-pyridazinone] | 181
35 | CC(C)(O)CCOc1c(-c2ccc(S(C)(=O)=O)cc2)cnn(-c2ccc(F)c(Cl)c2)c1=O [Example 473, 2-(3-Chloro-4-fluorophenyl)-4-(3-hydroxy-3-methyl-1-butoxy)-5-[4-(methylsulfonyl)phenyl]-3(2H)-pyridazinone] | 108 to 110
